These results are taken from paper PMC4119572 (Clinical cancer research : an official journal of the …, 2014).

Holding throughout (format): cell-based
Experiment [1] deals with T1, OCT2 (Homo sapiens, UniProt O15244).
T1 sequence (O15244 1-555): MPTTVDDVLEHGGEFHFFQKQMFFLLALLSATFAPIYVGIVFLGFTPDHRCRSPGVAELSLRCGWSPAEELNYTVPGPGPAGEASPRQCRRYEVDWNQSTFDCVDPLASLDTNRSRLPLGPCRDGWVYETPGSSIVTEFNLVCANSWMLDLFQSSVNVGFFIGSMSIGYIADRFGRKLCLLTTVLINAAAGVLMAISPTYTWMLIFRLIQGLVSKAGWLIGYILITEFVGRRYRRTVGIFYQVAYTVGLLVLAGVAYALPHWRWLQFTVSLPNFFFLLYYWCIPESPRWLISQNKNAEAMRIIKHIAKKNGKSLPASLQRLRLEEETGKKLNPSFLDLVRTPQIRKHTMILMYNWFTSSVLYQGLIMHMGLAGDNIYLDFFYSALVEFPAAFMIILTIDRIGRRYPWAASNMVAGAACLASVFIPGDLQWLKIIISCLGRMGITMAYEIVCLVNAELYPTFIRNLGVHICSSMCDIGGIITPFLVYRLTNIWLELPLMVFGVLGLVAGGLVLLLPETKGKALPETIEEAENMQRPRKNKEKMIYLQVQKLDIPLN
Kind of experiment: […]TEA uptake inhibition in OCT2-transfected HEK293 cells, Dixon plot.

In experiment [2] the target is T2, mouse Oct1 (Mus musculus, UniProt O08966).
T2 sequence (O08966 1-556): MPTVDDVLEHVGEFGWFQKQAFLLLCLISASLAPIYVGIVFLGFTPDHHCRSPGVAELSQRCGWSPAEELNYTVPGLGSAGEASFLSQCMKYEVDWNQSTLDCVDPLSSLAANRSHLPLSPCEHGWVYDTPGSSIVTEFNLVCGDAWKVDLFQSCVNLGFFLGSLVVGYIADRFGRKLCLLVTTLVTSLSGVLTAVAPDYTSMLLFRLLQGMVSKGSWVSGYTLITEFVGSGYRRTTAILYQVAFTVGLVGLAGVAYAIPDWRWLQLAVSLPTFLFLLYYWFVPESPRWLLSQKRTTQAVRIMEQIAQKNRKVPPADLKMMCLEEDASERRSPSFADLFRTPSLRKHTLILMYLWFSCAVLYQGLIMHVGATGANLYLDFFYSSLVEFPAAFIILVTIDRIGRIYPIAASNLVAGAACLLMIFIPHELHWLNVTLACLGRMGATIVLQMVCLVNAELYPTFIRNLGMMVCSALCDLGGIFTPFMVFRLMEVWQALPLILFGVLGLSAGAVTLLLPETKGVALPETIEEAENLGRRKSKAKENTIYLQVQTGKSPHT
As to the kind of experiment: TEA and ASP+ uptake inhibition in mOct1-transfected HEK293 cells.

In experiment [3] the target is T3, mouse Oct2 (Mus musculus, UniProt O70577).
T3 sequence (O70577 1-553): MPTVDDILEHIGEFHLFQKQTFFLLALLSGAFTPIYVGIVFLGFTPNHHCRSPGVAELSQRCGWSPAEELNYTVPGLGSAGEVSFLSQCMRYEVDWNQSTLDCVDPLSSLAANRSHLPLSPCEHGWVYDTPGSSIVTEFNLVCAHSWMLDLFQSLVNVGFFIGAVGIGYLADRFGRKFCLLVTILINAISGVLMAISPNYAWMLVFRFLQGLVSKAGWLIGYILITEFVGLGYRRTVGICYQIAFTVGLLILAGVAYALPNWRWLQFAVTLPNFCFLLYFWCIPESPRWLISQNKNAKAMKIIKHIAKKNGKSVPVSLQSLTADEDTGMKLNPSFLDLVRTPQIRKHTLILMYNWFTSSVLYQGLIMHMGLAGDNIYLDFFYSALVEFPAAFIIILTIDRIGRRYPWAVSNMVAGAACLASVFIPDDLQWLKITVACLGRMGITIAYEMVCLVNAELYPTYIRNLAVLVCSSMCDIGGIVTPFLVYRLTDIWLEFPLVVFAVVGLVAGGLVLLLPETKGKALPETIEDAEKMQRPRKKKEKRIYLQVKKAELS
Kind of experiment: TEA and ASP+ uptake inhibition in mOct2-transfected HEK293 cells.

Experiment [4] concerns the target T1, OCT2. As to the kind of experiment: […]TEA uptake in OCT2-transfected HEK293 cells.

As for `Cc1ccc(C(=O)Cn2c3c(sc2=N)CCCC3)cc1` [pifithrin-α], in experiment [1], the affinity, expressed as Ki, was 3.04 µM. Moreover, in experiment [2], the “TEA and ASP+ uptake inhibition in mOct1-transfected HEK293 cells” value was “pifithrin-α reduced uptake of TEA in Oct1 and Oct2 overexpressing HEK293 cells (Fig. 5A)”. For the same compound, the “TEA and ASP+ uptake inhibition in mOct2-transfected HEK293 cells” value in experiment [3] was “pifithrin-α reduced uptake of TEA in Oct1 and Oct2 overexpressing HEK293 cells (Fig. 5A)”.

Consider `CC[N+](CC)(CC)CC` [tetraethylammonium], for which the “[14C]TEA uptake in OCT2-transfected HEK293 cells” value in experiment [4] was “kinetic analyses were performed with and without pifithrin-α using varying concentrations of TEA as the OCT2 substrate”.
